Test results: ChEMBL document CHEMBL4251692, “Dual GSK-3β/AChE Inhibitors as a New Strategy for Multitargeting Anti-Alzheimer's Disease Drug Discovery” (ACS Med Chem Lett, 2018)
Active and inactive are the calls of the source. The rule behind the calls is not given here.

Experiments:
Cholinesterase [1] = target: Cholinesterase (Equus caballus, UniProt P81908); test: Inhibition of horse serum BuChE using butyrylthiocholine iodide as substrate incubated for 5 mins followed by substrate addition measured after 2 mins by Ellman's method
Cholinesterase (Equus caballus, UniProt P81908), sequence (P81908 whole entry): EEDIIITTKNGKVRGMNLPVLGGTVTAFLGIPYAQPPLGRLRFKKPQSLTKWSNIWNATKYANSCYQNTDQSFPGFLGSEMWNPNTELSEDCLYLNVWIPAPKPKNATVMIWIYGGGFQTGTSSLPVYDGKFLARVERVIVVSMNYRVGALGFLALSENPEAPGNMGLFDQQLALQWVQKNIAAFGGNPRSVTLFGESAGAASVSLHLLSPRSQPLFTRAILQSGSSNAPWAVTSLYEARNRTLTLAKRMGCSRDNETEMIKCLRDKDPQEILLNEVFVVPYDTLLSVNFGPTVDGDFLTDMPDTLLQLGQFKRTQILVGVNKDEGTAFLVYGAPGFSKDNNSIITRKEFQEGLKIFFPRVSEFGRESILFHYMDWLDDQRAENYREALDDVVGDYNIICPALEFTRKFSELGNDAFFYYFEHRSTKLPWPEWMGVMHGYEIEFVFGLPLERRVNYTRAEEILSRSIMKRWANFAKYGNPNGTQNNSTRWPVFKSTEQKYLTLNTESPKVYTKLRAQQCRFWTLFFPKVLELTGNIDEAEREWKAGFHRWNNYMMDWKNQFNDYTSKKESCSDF

[2] = target: Glycogen synthase kinase-3 beta (Homo sapiens, UniProt P49841); test: Inhibition of recombinant human full length N-terminal GST-tagged GSK-3beta expressed in Sf9 insect cells using prephosphorylated polypeptide as substrate after 30 mins by kinase-Glo reagent based luminescence assay
Glycogen synthase kinase-3 beta, sequence (P49841 whole entry): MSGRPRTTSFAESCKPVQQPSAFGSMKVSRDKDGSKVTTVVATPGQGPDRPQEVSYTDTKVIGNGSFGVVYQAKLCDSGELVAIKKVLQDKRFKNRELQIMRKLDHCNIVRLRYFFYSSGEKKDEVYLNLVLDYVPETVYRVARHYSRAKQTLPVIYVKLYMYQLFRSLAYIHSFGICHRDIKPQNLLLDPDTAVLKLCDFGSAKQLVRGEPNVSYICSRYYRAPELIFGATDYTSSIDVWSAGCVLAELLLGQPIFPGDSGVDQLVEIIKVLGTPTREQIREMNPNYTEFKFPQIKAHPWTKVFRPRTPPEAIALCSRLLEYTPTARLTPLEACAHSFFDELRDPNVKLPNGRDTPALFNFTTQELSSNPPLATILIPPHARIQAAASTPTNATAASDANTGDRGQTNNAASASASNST

Acetylcholinesterase [3] = target: T1, Acetylcholinesterase (Homo sapiens, UniProt P22303); test: Inhibition of human AChE using acetylthiocholine iodide as substrate incubated for 20 mins followed by substrate addition measured after 2 mins by Ellman's method
T1 sequence (P22303 whole entry): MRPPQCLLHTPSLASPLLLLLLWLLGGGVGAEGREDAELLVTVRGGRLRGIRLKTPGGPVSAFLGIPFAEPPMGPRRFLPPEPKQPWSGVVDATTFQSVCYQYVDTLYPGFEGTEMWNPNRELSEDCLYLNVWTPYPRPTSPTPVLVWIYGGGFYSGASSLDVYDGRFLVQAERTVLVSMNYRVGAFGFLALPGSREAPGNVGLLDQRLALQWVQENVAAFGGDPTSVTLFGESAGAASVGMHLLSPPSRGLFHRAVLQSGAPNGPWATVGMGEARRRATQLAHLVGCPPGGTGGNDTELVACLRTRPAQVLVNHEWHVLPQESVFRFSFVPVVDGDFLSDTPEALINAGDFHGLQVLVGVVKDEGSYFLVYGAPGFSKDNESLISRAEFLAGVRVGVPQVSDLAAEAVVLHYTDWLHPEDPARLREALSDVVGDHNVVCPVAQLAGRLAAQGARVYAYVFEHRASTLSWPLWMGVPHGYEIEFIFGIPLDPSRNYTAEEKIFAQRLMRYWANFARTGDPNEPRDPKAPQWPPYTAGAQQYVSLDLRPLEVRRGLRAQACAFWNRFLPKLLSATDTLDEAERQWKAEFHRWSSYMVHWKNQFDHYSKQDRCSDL

SH-SY5Y = test: Cytotoxicity against human SH-SY5Y cells assessed as reduction in cell viability after 48 hrs by MTT assay; assay type: cell-based
Mus musculus = test: Cognition enhancing effect in scopolamine-induced ICR mouse assessed as decrease in distance to target at 15 mg/kg, po administered 30 mins prior to scopolamine injection for 10 consecutive days followed by testing on day 11 post 30 mins scopolamine treatment by Morris water maze test; assay type: functional, organism-based
Cholinesterase [4] = target: Cholinesterase (Homo sapiens, UniProt P06276); test: Inhibition of human BuChE using butyrylthiocholine iodide as substrate incubated for 20 mins followed by substrate addition measured after 2 mins by Ellman's method
Cholinesterase (Homo sapiens, UniProt P06276), sequence (P06276 whole entry): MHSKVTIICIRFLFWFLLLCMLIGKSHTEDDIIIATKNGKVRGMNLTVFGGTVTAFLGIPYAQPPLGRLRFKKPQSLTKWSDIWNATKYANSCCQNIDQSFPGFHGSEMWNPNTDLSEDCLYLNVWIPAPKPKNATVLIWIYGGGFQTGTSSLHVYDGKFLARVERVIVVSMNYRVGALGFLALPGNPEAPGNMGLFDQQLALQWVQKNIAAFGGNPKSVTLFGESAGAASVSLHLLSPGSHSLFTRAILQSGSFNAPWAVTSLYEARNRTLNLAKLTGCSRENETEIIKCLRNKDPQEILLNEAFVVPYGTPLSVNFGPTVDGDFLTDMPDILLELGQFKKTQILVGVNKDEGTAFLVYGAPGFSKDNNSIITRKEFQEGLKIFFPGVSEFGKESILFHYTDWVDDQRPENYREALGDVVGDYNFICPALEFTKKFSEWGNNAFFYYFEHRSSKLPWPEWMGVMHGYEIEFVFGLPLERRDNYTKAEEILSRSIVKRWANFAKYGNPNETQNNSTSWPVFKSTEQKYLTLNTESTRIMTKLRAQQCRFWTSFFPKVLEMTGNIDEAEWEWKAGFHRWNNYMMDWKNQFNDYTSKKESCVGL

[5] = target: Glycogen synthase kinase-3 beta (Mus musculus) (UniProt Q9WV60); test: Inhibition of GSK-3beta in mouse N2A cells assessed as reduction in tau hyperphosphorylation at Ser396 residues at 10 uM after 6 hrs by Western blot analysis; assay type: cell-based
Glycogen synthase kinase-3 beta (Mus musculus), sequence (Q9WV60 whole entry, looked up): as the sequence (P49841 whole entry) above, with T390P, T392A, A400T, T402A counted along it

Acetylcholinesterase [6] = target: T1, Acetylcholinesterase; test: Mixed/non-competitive inhibition of human AChE using varying levels of acetylthiocholine iodide as substrate at 1 to 20 nM incubated for 20 mins by Lineweaver-Burk plot analysis
N2a = test: Effect on total tau protein level in mouse N2A cells at 10 to 30 uM after 6 hrs by Western blot analysis; assay type: cell-based
HepG2 = test: Cytotoxicity against human HepG2 cells assessed as reduction in cell viability after 24 hrs by MTT assay; assay type: cell-based; conditions: HepG2, 24 h
Homo sapiens = organism: Homo sapiens; test: Selectivity index, ratio of IC50 for human AChE to IC50 for human BuChE

SMILES | IC50 (Cholinesterase [1]) [nM] | IC50 [2] [nM] | IC50 (Acetylcholinesterase [3]) [nM] | IC50 (SH-SY5Y) [nM] | Activity (Mus musculus) | IC50 (Cholinesterase [4]) [nM] | inhibition [5] | inhibition (Acetylcholinesterase [6]) | Activity (N2a) | IC50 (HepG2) [nM] | Ratio IC50 (Homo sapiens)
COc1nc(-c2ccnc(NC(=O)C3CC3)c2)sc1C(=O)NCCCNc1c2c(nc3cc(Cl)ccc13)CCCC2 | 290 | 98 | 3.6 | 3100 |  |  |  |  |  |  | 
COc1nc(-c2ccnc(NC(=O)C3CC3)c2)sc1C(=O)NCCCCCCNc1c2c(nc3ccccc13)CCCC2 |  | 18 | 22 | 30000 | Active | 100 |  |  |  |  | 
CCOC(=O)c1sc(-c2ccnc(NC(=O)C3CC3)c2)nc1OCCNc1c2c(nc3ccccc13)CCCC2 |  | 180 | 310 | 7100 |  | 610 |  |  |  |  | 
NC(=O)c1sc(-c2ccnc(NC(=O)C3CC3)c2)nc1OCCNc1c2c(nc3ccccc13)CCCC2 |  | 34 | 300 | 19000 |  | 150 |  |  |  |  | 
COc1nc(-c2ccnc(NC(=O)C3CC3)c2)sc1C(=O)NCCCNc1c2c(nc3ccccc13)CCCC2 |  | 66 | 6.4 | 18000 | Active | 260 | Active | Active | Non-Toxic | 35000 | 
COc1ccc2nc3c(c(NCCNC(=O)c4sc(-c5ccnc(NC(=O)C6CC6)c5)nc4OC)c2c1)CCCC3 | 2100 | 83 | 23 | 8900 |  |  |  |  |  |  | 
COc1nc(-c2ccnc(NC(=O)C3CC3)c2)sc1C(=O)NCCNc1c2c(nc3ccccc13)CCCC2 |  | 68 | 6.3 | 6300 |  | 51 |  |  |  |  | 
O=C(O)c1sc(-c2ccnc(NC(=O)C3CC3)c2)nc1OCCNc1c2c(nc3ccccc13)CCCC2 |  | 270 | 580 | 21000 |  | 450 |  |  |  |  | 
COc1nc(-c2ccnc(NC(=O)C3CC3)c2)sc1C(=O)NCCNc1c2c(nc3cc(Cl)ccc13)CCCC2 | 410 | 63 | 2.1 | 2300 |  |  |  |  |  |  | 
COc1ccc2nc3c(c(NCCCNC(=O)c4sc(-c5ccnc(NC(=O)C6CC6)c5)nc4OC)c2c1)CCCC3 | 2300 | 65 | 38 | 2900 |  |  |  |  |  |  | 
COC(=O)c1sc(-c2ccnc(NC(=O)C3CC3)c2)nc1OCCNc1c2c(nc3ccccc13)CCCC2 |  | 99 | 130 | 13000 | Active | 28 |  |  |  |  | 4.6
